According to PMC6193938, “Characterization of a novel AICARFT inhibitor which potently elevates ZMP and has anti-tumor activity in murine models” (Scientific Reports, 2018):
Read-outs that look alike come from different tables or passages of the source.

Tests used:
[1] = target: T1, DDR2 (Homo sapiens, UniProt Q16832); experiment: CEREP protein kinase assay; type: biochemical
T1 construct: purchased CEREP Panlabs (Eurofins)
T1 sequence (Q16832 22-855): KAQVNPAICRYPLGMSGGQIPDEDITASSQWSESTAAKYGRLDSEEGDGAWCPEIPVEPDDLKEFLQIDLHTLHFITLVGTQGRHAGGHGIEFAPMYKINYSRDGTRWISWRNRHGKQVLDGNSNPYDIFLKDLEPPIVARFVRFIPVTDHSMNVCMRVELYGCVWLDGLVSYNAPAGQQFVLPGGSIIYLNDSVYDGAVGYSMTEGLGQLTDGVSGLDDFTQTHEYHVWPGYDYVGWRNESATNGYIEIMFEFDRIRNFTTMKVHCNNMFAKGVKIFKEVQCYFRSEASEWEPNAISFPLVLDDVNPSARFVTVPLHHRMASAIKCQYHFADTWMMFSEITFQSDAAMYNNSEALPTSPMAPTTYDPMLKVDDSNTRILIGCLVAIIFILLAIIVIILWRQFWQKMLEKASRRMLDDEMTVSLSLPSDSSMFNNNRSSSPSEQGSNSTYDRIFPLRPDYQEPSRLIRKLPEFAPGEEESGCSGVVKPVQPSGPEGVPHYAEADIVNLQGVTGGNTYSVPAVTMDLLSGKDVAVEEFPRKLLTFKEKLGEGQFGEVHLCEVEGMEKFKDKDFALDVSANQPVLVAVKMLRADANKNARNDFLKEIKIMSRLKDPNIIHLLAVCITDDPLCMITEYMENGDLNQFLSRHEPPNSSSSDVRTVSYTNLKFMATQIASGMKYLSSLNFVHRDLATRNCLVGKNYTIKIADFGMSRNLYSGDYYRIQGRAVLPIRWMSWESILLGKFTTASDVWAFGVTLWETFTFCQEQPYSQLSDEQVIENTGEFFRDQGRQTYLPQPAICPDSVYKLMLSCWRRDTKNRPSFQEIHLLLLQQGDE

[2] = target: T2, TRKB (Homo sapiens, UniProt Q16620); experiment: CEREP protein kinase assay; type: biochemical
T2 construct: purchased CEREP Panlabs (Eurofins)

[3] = target: T3, IGF1R (Homo sapiens, UniProt P08069); experiment: CEREP protein kinase assay; type: biochemical
T3 construct: purchased CEREP Panlabs (Eurofins)
T3 sequence (P08069 31-1367): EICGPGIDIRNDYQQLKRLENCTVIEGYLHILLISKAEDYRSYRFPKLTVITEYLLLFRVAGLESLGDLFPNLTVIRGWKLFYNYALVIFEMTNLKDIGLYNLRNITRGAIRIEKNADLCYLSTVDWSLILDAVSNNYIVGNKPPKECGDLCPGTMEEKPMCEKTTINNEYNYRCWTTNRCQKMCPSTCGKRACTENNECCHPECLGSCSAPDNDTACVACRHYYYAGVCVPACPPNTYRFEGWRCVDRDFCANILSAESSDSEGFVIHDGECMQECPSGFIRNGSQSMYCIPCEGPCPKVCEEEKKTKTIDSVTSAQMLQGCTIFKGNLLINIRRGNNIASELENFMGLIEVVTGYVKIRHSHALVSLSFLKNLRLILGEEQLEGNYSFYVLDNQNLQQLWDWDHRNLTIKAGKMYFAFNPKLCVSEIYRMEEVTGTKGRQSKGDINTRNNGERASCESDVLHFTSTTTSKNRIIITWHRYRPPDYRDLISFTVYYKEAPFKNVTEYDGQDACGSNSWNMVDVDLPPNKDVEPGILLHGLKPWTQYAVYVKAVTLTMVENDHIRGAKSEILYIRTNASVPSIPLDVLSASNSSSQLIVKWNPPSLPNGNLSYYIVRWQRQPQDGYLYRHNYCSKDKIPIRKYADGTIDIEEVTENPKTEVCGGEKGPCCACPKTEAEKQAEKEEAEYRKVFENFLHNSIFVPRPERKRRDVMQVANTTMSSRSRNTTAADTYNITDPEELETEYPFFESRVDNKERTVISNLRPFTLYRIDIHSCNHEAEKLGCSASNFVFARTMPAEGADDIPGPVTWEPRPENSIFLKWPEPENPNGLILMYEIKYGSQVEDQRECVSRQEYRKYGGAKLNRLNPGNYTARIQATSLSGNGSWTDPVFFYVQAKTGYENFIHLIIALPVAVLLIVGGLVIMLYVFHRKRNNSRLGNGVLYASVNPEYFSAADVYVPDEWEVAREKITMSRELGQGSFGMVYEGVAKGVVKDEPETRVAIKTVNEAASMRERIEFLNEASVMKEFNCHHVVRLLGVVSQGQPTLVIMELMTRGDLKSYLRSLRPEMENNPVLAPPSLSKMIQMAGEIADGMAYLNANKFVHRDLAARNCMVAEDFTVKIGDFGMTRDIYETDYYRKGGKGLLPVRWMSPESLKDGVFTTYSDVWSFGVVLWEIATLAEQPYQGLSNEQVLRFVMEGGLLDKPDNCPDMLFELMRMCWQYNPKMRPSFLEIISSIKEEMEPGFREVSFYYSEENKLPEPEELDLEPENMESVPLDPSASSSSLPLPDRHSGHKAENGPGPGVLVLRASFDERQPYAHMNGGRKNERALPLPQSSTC

[4] = tested on: MDA-MB-231; experiment: In vitro proliferation assay, Cell Titer Glo; type: cell-based; settings: Homo sapiens
Excerpt: Cell Titer Glo measures ATP, thus the IC50s represent both the effect on purine production and cell proliferation, which are related. […] Folates are actively taken up in cells by reduced folate carrier (SLC19A1), proton-coupled folate transporter (SLC46A1), and the FOLR1 folate receptor[17]. Once inside the cell, folates are trapped by polyglutamation catalyzed by folylpolyglutamate synthetase (FPGS). […] Gene expression data for ATIC, GART, APRT, HPRT, FOLR1, SLC19A1, SLC46A1 & FPGS are shown in Fig. 2, since these genes were anticipated to predict sensitivity. […] The MDA-MB-231 cell line is reduced folate carrier (SLC19A1) negative due to epigenetic silencing.
Cells were cultured using recommended culture conditions unless noted otherwise (Supplemental Table 3). Cells were plated, dosed with compound and incubated at 37 °C for approximately 2 doubling times as determined for each cell line. Cell Titer Glo (Promega) assay was used to measure proliferation according to manufacturer’s recommendations by measuring luminescence with Flexstation3 (Molecular Devices) with 500 ms integration time. […] The % response was fit to a four-parameter logistic equation using ACTIVITYBASE 4.0 to determine the absolute IC50 values.

[5] = target: T4, PKCb2 (Homo sapiens, UniProt P05771); experiment: CEREP protein kinase assay; type: biochemical
T4 construct: purchased CEREP Panlabs (Eurofins)
T4 sequence (P05771 1-673 isoform P05771-2): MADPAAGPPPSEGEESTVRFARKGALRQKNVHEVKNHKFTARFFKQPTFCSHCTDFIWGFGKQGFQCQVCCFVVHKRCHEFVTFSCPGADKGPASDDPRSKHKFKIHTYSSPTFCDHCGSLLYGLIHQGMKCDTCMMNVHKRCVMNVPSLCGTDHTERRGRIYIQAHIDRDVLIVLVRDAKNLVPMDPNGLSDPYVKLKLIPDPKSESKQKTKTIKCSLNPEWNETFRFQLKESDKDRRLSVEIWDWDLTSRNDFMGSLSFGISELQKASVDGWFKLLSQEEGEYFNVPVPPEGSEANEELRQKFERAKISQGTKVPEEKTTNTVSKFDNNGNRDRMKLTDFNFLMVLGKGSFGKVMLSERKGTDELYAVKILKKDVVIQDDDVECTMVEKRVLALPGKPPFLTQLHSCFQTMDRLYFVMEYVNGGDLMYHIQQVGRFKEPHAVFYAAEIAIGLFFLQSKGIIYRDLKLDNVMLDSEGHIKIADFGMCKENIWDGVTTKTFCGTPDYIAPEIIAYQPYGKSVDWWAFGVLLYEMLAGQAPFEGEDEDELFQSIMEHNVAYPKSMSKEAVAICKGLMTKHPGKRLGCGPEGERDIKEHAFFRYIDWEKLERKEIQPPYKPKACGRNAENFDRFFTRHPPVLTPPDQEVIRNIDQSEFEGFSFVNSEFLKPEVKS

[6] = target: T5, RSK1 (Homo sapiens, UniProt Q15418); experiment: CEREP protein kinase assay; type: biochemical
T5 construct: purchased CEREP Panlabs (Eurofins)
T5 sequence (Q15418 whole entry): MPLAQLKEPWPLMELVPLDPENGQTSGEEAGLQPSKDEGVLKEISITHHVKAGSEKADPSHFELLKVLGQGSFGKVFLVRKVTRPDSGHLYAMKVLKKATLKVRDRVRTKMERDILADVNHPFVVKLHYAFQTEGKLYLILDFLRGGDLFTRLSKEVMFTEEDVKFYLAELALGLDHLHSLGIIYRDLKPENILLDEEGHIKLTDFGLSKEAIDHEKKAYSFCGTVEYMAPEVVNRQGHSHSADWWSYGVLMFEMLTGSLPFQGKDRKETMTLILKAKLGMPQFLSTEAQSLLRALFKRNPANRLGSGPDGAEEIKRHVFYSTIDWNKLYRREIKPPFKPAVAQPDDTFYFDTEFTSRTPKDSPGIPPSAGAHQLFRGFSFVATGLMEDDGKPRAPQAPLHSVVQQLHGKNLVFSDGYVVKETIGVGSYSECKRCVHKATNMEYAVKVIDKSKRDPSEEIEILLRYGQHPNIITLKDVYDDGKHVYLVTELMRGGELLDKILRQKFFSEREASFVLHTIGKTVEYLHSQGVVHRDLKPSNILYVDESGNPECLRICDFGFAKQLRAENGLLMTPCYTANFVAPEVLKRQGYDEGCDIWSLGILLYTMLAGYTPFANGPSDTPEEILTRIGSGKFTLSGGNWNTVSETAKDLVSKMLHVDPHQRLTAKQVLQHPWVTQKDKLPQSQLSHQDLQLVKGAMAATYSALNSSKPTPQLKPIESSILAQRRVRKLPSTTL

[7] = target: T6, SIK (Homo sapiens, UniProt P57059); experiment: CEREP protein kinase assay; type: biochemical
T6 construct: purchased CEREP Panlabs (Eurofins)
T6 sequence (P57059 whole entry): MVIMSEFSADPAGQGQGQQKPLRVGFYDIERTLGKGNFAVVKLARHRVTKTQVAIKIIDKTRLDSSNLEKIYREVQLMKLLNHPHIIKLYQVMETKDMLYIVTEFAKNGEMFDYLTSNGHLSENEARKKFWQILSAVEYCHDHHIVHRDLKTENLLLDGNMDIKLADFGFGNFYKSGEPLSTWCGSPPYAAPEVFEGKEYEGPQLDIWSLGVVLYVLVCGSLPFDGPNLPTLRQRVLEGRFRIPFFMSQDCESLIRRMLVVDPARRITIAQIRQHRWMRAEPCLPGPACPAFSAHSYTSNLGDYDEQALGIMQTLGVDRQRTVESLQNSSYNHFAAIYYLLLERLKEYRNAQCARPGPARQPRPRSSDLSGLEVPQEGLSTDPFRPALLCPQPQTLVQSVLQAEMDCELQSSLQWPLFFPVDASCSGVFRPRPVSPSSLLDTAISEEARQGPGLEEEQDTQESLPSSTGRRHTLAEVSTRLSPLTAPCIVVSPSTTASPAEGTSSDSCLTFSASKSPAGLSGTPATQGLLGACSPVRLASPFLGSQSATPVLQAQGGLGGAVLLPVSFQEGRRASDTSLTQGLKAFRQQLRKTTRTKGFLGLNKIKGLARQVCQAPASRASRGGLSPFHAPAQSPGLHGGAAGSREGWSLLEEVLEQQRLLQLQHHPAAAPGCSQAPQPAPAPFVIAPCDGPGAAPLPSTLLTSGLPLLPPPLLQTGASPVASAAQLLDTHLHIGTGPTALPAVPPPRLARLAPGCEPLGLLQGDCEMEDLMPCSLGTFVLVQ

[8] = target: T7, PIM1 (Homo sapiens, UniProt P11309); experiment: CEREP protein kinase assay; type: biochemical
T7 construct: purchased CEREP Panlabs (Eurofins)

[9] = target: T8, ROCK1 (Homo sapiens, UniProt Q13464); experiment: CEREP protein kinase assay; type: biochemical
T8 construct: purchased CEREP Panlabs (Eurofins)
T8 sequence (Q13464 whole entry): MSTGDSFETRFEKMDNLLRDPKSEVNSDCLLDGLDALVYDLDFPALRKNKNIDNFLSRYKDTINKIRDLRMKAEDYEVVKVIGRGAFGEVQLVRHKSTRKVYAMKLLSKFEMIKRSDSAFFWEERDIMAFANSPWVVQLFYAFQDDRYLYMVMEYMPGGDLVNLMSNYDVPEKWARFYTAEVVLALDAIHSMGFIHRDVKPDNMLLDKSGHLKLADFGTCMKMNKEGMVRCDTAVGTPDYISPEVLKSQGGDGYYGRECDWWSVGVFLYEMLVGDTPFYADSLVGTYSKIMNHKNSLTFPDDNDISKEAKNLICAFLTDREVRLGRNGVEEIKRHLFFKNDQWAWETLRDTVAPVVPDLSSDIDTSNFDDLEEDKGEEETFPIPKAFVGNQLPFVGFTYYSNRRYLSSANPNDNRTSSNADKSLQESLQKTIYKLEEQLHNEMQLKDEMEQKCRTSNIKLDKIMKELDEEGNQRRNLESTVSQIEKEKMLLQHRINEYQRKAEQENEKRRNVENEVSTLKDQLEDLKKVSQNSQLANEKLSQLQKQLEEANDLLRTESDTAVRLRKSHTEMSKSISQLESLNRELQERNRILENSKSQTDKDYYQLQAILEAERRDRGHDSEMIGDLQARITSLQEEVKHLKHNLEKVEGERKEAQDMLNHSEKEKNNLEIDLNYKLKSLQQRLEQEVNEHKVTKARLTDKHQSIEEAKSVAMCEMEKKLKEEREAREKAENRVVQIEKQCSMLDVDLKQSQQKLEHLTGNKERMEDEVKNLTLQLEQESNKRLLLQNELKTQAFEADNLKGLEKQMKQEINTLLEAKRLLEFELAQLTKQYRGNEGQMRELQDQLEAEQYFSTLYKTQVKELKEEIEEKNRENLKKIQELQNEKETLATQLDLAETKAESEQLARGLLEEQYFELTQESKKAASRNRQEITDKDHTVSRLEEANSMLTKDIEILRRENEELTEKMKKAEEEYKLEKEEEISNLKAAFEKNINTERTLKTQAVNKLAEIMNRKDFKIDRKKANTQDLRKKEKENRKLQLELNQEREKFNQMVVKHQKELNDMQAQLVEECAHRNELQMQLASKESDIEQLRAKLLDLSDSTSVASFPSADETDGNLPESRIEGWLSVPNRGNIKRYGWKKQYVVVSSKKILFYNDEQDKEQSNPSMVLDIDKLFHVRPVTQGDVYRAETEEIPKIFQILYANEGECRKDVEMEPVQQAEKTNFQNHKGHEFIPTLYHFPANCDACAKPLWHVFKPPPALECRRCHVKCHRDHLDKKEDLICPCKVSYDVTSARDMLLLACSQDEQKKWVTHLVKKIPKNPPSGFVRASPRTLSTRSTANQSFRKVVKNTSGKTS

[10] = target: T9, MAPKAPK5 (Homo sapiens, UniProt Q8IW41); experiment: CEREP protein kinase assay; type: biochemical
T9 construct: purchased CEREP Panlabs (Eurofins)
T9 sequence (Q8IW41 1-473): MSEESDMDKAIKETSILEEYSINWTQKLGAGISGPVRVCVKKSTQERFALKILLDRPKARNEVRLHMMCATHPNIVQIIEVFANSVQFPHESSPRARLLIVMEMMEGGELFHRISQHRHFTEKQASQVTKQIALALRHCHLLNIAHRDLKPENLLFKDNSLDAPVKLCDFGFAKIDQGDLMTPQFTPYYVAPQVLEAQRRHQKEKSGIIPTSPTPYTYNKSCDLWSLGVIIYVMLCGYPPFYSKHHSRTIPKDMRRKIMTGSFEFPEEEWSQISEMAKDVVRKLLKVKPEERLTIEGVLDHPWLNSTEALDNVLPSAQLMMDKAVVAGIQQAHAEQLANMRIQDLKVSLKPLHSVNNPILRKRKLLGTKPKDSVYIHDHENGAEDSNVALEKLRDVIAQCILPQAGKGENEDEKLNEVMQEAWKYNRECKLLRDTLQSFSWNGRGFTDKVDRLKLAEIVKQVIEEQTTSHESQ

For `O=c1[nH]ccc2cc(F)c(NS(=O)(=O)c3ccc(N4CC[C@@H](O)C4)s3)cc12` [LSN3213128, N-(6-Fluoro-1-oxo-1,2-dihydroisoquinolin-7-yl)-5-[(3R)-3-hydroxypyrrolidin-1-yl]thiophene-2-sulfonamide], the inhibition at 0.2 µM ([1]; @ 0.2 uM) was -16.5%, the inhibition at 2 µM ([1]; @ 2 uM) was -13.4% and the inhibition at 20 µM ([1]; @ 20 uM) was -3.1%. It also gave an inhibition at 0.2 µM ([2]; @ 0.2 uM) of 2.14%, an inhibition at 2 µM ([2]; @ 2 uM) of 3.76% and an inhibition at 20 µM ([2]; @ 20 uM) of 20.3%. The inhibition at 0.2 µM ([3]; @ 0.2 uM) was -0.761%, the inhibition at 2 µM ([3]; @ 2 uM) was 6.61% and the inhibition at 20 µM ([3]; @ 20 uM) was 60.3%. For the same compound, the IC50 ([4]; MDA-MB-231, breast, read-out: ABS_IC50_VALUE) was 20 nM, the IC50 ([4]; MDA-MB-231, Cell Titer Glo, two doubling times, read-out: IC50 by CTG) was 7.6 nM and the inhibition at 0.2 µM ([5]; @ 0.2 uM) was -3.72%. For the same compound, the inhibition at 2 µM ([5]; @ 2 uM) was -1.04%, the inhibition at 20 µM ([5]; @ 20 uM) was -3.76% and the inhibition at 0.2 µM ([6]; @ 0.2 uM) was 0.638%. For the same compound, the inhibition at 2 µM ([6]; @ 2 uM) was 8.18%, the inhibition at 20 µM ([6]; @ 20 uM) was 11.4% and the inhibition at 0.2 µM ([7]; @ 0.2 uM) was -1.42%. It also gave an inhibition at 2 µM ([7]; @ 2 uM) of 3.69%, an inhibition at 20 µM ([7]; @ 20 uM) of 3.12% and an inhibition at 0.2 µM ([8]; @ 0.2 uM) of 7.96%. It also gave an inhibition at 2 µM ([8]; @ 2 uM) of 13.3%, an inhibition at 20 µM ([8]; @ 20 uM) of 26.5% and an inhibition at 0.2 µM ([9]; @ 0.2 uM) of 7.67%. For the same compound, the inhibition at 2 µM ([9]; @ 2 uM) was 10.9%, the inhibition at 20 µM ([9]; @ 20 uM) was 21.3% and the inhibition at 0.2 µM ([10]; @ 0.2 uM) was 3.51%. For the same compound, the inhibition at 2 µM ([10]; @ 2 uM) was 13.3% and the inhibition at 20 µM ([10]; @ 20 uM) was -3.2%.
